{"source": "patent US20130224761A1", "about": "“NON COVALENT MOLECULAR STRUCTURE, COMPRISING A PORPHYRIN BASED GLYCOCONJUGATE, DEVICE COMPRISING THE SAME AND ITS USE FOR DETECTION OF LECTIN” (CENTRE NATIONAL DE LA RECHERCHE SCIENTIFIQUE (CNRS), priority 2011, published 2013)", "key": {"[1]": {"molecular_target": "T1, PA-IL lectin (Pseudomonas aeruginosa, UniProt Q05097)", "T1 construct": "made in house; host or cells: Escherichia coli", "T1 sequence (Q05097 whole entry)": "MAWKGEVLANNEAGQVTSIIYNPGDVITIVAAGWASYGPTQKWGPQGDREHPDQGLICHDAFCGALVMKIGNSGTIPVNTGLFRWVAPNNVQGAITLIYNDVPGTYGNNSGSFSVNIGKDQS", "assay": "SWNT-FET electronic detection of glycoconjugate-lectin interaction (G vs Vg)", "type": "binding", "details": "SWNT-FET functionalized with glycoconjugate; 5 μM lectin, 5 μM Ca2+, PBS pH 7", "method": "(§3) Lectin attachment was performed in the presence of 5 μM Ca^2+.\n(§4) The electrical performance of each such obtained “SWNT-FET” device was investigated in electrolyte gated FET device configuration. […] A small fluid (1 mL) chamber was placed over the SWNT-FET device to control the liquid environment using phosphate buffer solution (PBS) at pH 7. A liquid gate potential (−0.75V to 0.75 V) with respect to the grounded drain electrode was applied using Ag/AgCl (3 M KCl) reference electrode submerged in the electrolyte. The drain current of the device was measured at a constant source-drain voltage of 50 mV.\nThis step was followed by incubating the chips for 30 minutes in different concentrations of lectin solutions prepared in PBS with 5 μM CaCl2 and latter rinsing with PBS solution."}, "[2]": {"tested_on": "ConA lectin", "assay": "CCG-FET electronic detection of glycoconjugate-lectin interaction (G vs Vg)", "type": "binding, Canavalia ensiformis", "details": "CCG-FET functionalized with glycoconjugate; 2 μM lectin, 5 μM Ca2+, PBS", "protocol": "(§1) FIG. 6 illustrates the electronic detection of carbohydrate-lectin interactions.\n(§2) For each glycoconjugate functionalized device, non-specific lectins were tested first, followed by washing procedures and measuring of specific lectin. The final transfer characteristics were tested again in the configuration mentioned above."}, "[3]": {"molecular_target": "T1, PA-IL lectin", "assay": "CCG-FET electronic detection of glycoconjugate-lectin interaction (G vs Vg)", "type": "binding", "details": "CCG-FET functionalized with glycoconjugate; 2 μM lectin, 5 μM Ca2+, PBS", "protocol": "as §1, §2"}, "[4]": {"tested_on": "PA-IIL lectin", "details": "SWNT-FET functionalized with glycoconjugate; 5 μM lectin per FIG. 5 legend (1 μM elsewhere in the source), 5 μM Ca2+, PBS pH 7", "method": "as §3, §4\nSurface functionalization of SWNT FET device with each porphyrin based glycoconjugate respectively named “5a”, “5b” and “5c” was performed by incubating them in their 5 μM solution in deionized water for 2 hours followed by rinsing with deionized water. This step was followed by incubating the chips for 30 minutes in different concentrations of lectin solutions prepared in PBS with 5 μM CaCl2 and latter rinsing with PBS solution."}, "[5]": {"tested_on": "ConA lectin", "assay": "SWNT-FET electronic detection of glycoconjugate-lectin interaction (G vs Vg)", "type": "binding, Canavalia ensiformis", "details": "SWNT-FET functionalized with glycoconjugate; 5 μM lectin, 5 μM Ca2+, PBS pH 7", "description": "ConA (25 kDa) is a plant lectin from Canavalia ensiformis that is specific for α-D-mannose and is available commercially from Sigma and used without further purification."}, "[6]": {"tested_on": "ConA lectin", "assay": "AFM imaging of SWNT functionalized with glycoconjugate before and after ConA lectin attachment", "type": "binding, Canavalia ensiformis", "details": "5 μM Ca2+", "protocol": "Atomic force microscope (AFM) images (FIG. 4) were obtained using scanning probe microscope (Veeco Nanoscope II) in a tapping mode configuration. Samples were prepared by spin coating of bare or functionalized SWNTs onto a freshly cleaved sheet of mica. The images were taken after 30 min of drying in ambient and subsequent washing with PBS solution (for functionalized SWNTs).\nFIG. 4a depicts a small bundle of bare SWNTs with diameter of 3.4 nm. After non covalent functionalization with glycoconjugate “5b” (non covalent molecular structure “SWNT-5b”), SWNT bundles show diameters of 11.7-14.6 nm (FIG. 4b). Con A lectin binding to the functionalized “SWNT-5b” nanostructures (“SWNT-5b-ConA”) increases SWNT diameters to 18.3 nm (FIG. 4c)."}}}
{"compound": "5,10,15,20-Tetrakis(4′-{1-[(β-D-galactopyranosyloxy)-3,6-dioxaoct-8-yl]-1,2,3-triazol-4-yl}methyleneoxyphenyl)-Zn-(II)-porphyrin [5a]", "values": [{"measurement": "change in G vs Vg curve (threshold voltage, conductance) on treating with PA-IL lectin", "setting": "[1]", "result": "selective response"}, {"measurement": "change in G vs Vg curve (threshold voltage, conductance) on treating with ConA lectin", "setting": "[2]", "result": "no significant change"}, {"measurement": "change in G vs Vg curve (threshold voltage, conductance) on treating with PA-IL lectin", "setting": "[3]", "result": "negative shift in threshold voltage and further decrease in conductance"}]}
{"compound": "5,10,15,20-Tetrakis(4′-{1-[(α-D-mannopyranosyloxy)-3,6-dioxaoct-8-yl]-1,2,3-triazol-4-yl}methyleneoxyphenyl)-Zn-(II)-porphyrin [5b]", "values": [{"measurement": "change in G vs Vg curve (threshold voltage, conductance) on treating with PA-IIL lectin", "setting": "[4]", "result": "no significant change"}, {"measurement": "change in G vs Vg curve (threshold voltage, conductance) on treating with ConA lectin", "setting": "[5]", "result": "positive interaction"}, {"measurement": "change in G vs Vg curve (threshold voltage, conductance) on treating with ConA lectin", "setting": "[2]", "result": "negative shift in threshold voltage and further decrease in conductance"}, {"measurement": "binding of Con A lectin to glycoconjugate on the surface of SWNTs (AFM)", "setting": "[6]", "result": "specific binding"}, {"measurement": "SWNT diameter after Con A lectin binding to functionalized SWNT (AFM)", "setting": "[6]; SWNT-5b-ConA, 11.7-14.6 nm before lectin, bare SWNT bundle 3.4 nm", "result": 18.3, "unit": "nm"}, {"measurement": "change in G vs Vg curve (threshold voltage, conductance) on treating with PA-IL lectin", "setting": "[3]", "result": "no significant change"}]}
{"compound": "C[C@@H]1O[C@@H](OCCOCCOCCn2cc(COc3ccc(-c4c5nc(c(-c6ccc(OCc7cn(CCOCCOCCO[C@@H]8O[C@@H](C)[C@@H](O)[C@@H](O)[C@@H]8O)nn7)cc6)c6ccc([n-]6)c(-c6ccc(OCc7cn(CCOCCOCCO[C@@H]8O[C@@H](C)[C@@H](O)[C@@H](O)[C@@H]8O)nn7)cc6)c6nc(c(-c7ccc(OCc8cn(CCOCCOCCO[C@@H]9O[C@@H](C)[C@@H](O)[C@@H](O)[C@@H]9O)nn8)cc7)c7ccc4[n-]7)C=C6)C=C5)cc3)nn2)[C@@H](O)[C@H](O)[C@@H]1O.[Zn+2]", "note": "[5c, 5,10,15,20-Tetrakis(4′-{1-[(α-L-fucopyranosyloxy)-3,6-dioxaoct-8-yl]-1,2,3-triazol-4-yl}methyleneoxyphenyl)-Zn-(II)-porphyrin]", "values": [{"measurement": "change in G vs Vg curve (threshold voltage, conductance) on treating with PA-IIL lectin", "setting": "[4]", "result": "positive interactions"}]}
